One data set deals with Escherichia coli. The data set can be described thus: Binding affinity to pUC19 DNA assessed as drug concentration to induce plasmid re-supercoiling by topoisomerase 1 DNA unwinding assay.
Data set [1] can be described thus: Binding affinity to M13mp19 DNA by spectrophotometric titration method.
Data set [2] deals with DNA. The data set can be described thus: Binding affinity to calf thymus DNA by isothermal titration calorimetry. The class given is nucleic-acid assay. Particulars: Bos taurus. (In general: Isothermal titration calorimetry measures the heat released or taken up as one component is titrated into another.)
Data set [3] deals with DNA. Briefly: Binding affinity to calf thymus DNA by spectrophotometric titration method. The class given is nucleic-acid assay. Particulars: Bos taurus.
Data set [4] can be described thus: Partition coefficient, log P by shake flask method. The class given is physicochemical. Particulars: octanol/water.

One may read the logP as a log measure of how a compound divides between an organic and an aqueous phase.

Turning to `CN(C)c1ccc(-c2cc(-c3ccc(N(C)C)cc3)[se+]c(C(C)(C)C)c2)cc1`, the Kb in the data set on Escherichia coli was 22 10^6/M; in data set [1], 2.5 10^4/M; with DNA [2], 3.9 10^5/M; with DNA [3], 8.7 10^4/M. For the same molecule, the logP in data set [4] was determined as 1.57.
The corresponding values for `Cc1cc(-c2ccc(N(C)C)cc2)cc(-c2ccc(N(C)C)cc2)[s+]1` are 66 10^6/M, 6.1 10^4/M, 1.7 10^5/M, 5.2 10^4/M and 0.6.
With `CCCCc1cc(-c2ccc(N(C)C)cc2)cc(-c2ccc(N(C)C)cc2)[s+]1`, the Kb in data set [1] is 7.58 10^4/M. The same molecule yielded a logP in data set [4] of 1.63.
As for `CCCc1cc(-c2ccc(N(C)C)cc2)cc(-c2ccc(N(C)C)cc2)[s+]1`, the Kb in the data set on Escherichia coli was 45 10^6/M; in data set [1] it was 3.47 10^4/M; in the data set on DNA [2] it was 2.4 10^5/M; in the data set with DNA [3], 5 10^4/M. For the same molecule, the log partition coefficient (logP) in data set [4] turned out to be 0.82.
Consider `CN(C)c1ccc(-c2cc(-c3ccc(N(C)C)cc3)[s+]c(C(C)(C)C)c2)cc1`, for which the Kb in the data set with Escherichia coli was 23 10^6/M; in data set [1], 0.91 10^4/M; with DNA [2], 4.2 10^5/M; in the data set with DNA [3], 10.1 10^4/M. Further, the logP in data set [4] was determined as 1.51.
As for `CCc1cc(-c2ccc(N(C)C)cc2)cc(-c2ccc(N(C)C)cc2)[s+]1`, in data set [1], the Kb was 1.8 10^4/M. This molecule returned a logP in data set [4] of 0.13.
For `CC(C)c1cc(-c2ccc(N(C)C)cc2)cc(-c2ccc(N(C)C)cc2)[s+]1`, in data set [1], the Kb was 1.17 10^4/M. The same molecule gave a logP in data set [4] of 0.23.
